Laboratory results: patent publication US20230321083A1, “Inhibitors of GPR174 and Uses Thereof” (Omeros Corporation, priority 2016, published 2023)

Assays:
C57BL/6+DBA1 splenocytes = test: Cytokines in C57BL/6 + DBA1 splenocyte co-culture; assay type: cell-based, mouse; settings: 30 μM; day 6 after mixing
Experimental: In order to stimulate T cells in mice, splenocytes obtained from two different mouse strains, C57BL/6 and DBA1, were mixed in culture.
The effect of compound #10 on production of cytokines (IFN-γ, IL-5, TNF-α, IL-2, IL-6, IL-4, IL-10, IL-9, IL17A, IL17F, IL-21, IL-22 and IL-13) in mouse splenocyte co-cultures was determined as follows. Splenocytes obtained from two different mouse strains, C57BL/6 and DBA1, were mixed in culture in the presence or absence of 30 μM compound #10. Cytokine production of IFN-γ, IL-5, TNF-α, IL-2, IL-6, IL-4, IL-10, IL-9, IL-17A, IL-17F, IL-21, IL-22 and IL-13 was measured in the co-culture supernatant at day 4 and day 6 after mixing. Cytokine levels were determined by LEGENDplex™ bead-based immunoassays from BioLegend (San Diego, CA) according to the manufacturer's instructions.

human PBMCs = test: Treg (FoxP3/Helios) flow cytometry in anti-CD3/anti-CD28 stimulated human PBMCs; assay type: cell-based
Experimental: (§1) A fraction of the cells was taken for staining on day 3 post-stimulation, while the rest of the cells were split 1:4 with fresh medium and used for staining on day 7 post-stimulation. To determine the fraction of natural Treg (nTreg) cells (FoxP3^+Helios^+), PBMCs were washed, stained with fluorescently labeled anti-CD4 antibodies, fixed, permeabilized and stained with a mixture of fluorescent anti-FoxP3 and anti-Helios antibodies. Labeled cells were analyzed by flow cytometry for populations stained for these three markers. Each experiment was performed in triplicate and was repeated five times.
as §1, with “three” for “five”
as §1, with “day 2” for “day 3”, “(FoxP3^+Helios^+), PBMC” for “(FoxP3^+Helios^+), PBMCs”

## CC1CCN(c2cc(N3CCN(S(=O)(=O)c4ccccc4)CC3)c([N+](=O)[O-])cc2F)CC1 [Compound 10]
C57BL/6+DBA1 splenocytes
  fold induction of a panel of cytokines in splenocyte co-culture: strong alteration in quantities of cytokines
Human PBMCs; day 3 post-stimulation, 100 μM, p=0.03 vs vehicle
  fraction of FoxP3+Helios− cells in CD4+ population: significantly increased
Human PBMCs; day 7, 30 μM, PBMC from eight donors
  abundance of FoxP3+Helios+ nTreg cells (fraction of vehicle): significantly reduced
Human PBMCs; day 7, 3, 10, 30 μM, single donor, dose-dependent
  abundance of FoxP3+Helios+ nTreg cells in CD4+ population: significantly reduced
Human PBMCs; day 7 post-stimulation, 100 μM, p=0.01 vs vehicle
  abundance of FoxP3+Helios+ nTreg cells in CD4+ population: significantly reduced
